Measured values reported in patent US20040157785A1, “Combination therapy comprising anti-diabetic and anticonvulsant agents” (priority 2000, published 2004).
Where two headings read alike, the source gives them in different places.

How the values were obtained:
[1] = system: patient with Type II diabetes; experiment: Case Study A: topiramate added to insulin (70/30) in a Type II diabetes patient; type: in vivo, human
Protocol: The ability of the compounds of formula I administered in combination with an anti-diabetic agent to treat Type II diabetes mellitus and Syndrome X is based on the following case studies. The patient was a person with a 6 year history of Type II diabetes. For the past four years the patient was being treated with insulin (70/30). At the start of treatment patient's weight was 236 lbs, measured cholesterol was 316 mg/dl and measured glucose was 166 mg/dl. The patient was started on Topiramate for treatment of seizures and titrated to 75 mg a day. […] After 16 months, patient's fasting glucose was 89 mg/dl.

[2] = system: patient with Type II diabetes; experiment: Case Study B: topiramate added to Glucotrol (glipizide) in a Type II diabetes patient; type: in vivo, human
Protocol: The ability of the compounds of formula I administered in combination with an anti-diabetic agent to treat Type II diabetes mellitus and Syndrome X is based on the following case studies. The patient was a person with a 5 year history of Type II diabetes. At the start of treatment, patient was taking 40 mg/day Glucotrol (glipizide, a sulfonylurea) and weighed 293 lbs. The patient was titrated on topiramate to 50 mg/day. After 1 month of treatment, patient reported that home measured blood sugars had dropped from a baseline of 300 mg/dl to measured blood sugars of 140 mg/dl. After 2 months, the patient indicated average blood sugar levels of 80-140 mg/dl and weight loss to 272 lbs.

[3] = system: patient with diabetes; experiment: Case Study C: topiramate added to Glucophage, DiaBeta and Rezulin in a diabetes patient; type: in vivo, human
Protocol: The ability of the compounds of formula I administered in combination with an anti-diabetic agent to treat Type II diabetes mellitus and Syndrome X is based on the following case studies. The patient was a person with an 8 year history of diabetes. Prior to treatment, patient's weight was 201 lbs, Hgb A1C was 9.3% and blood sugar was 309 mg/dl. Patient was taking Glucophage (metformin hydrochloride) at four 500 mg tablets/day (2 tablets in the morning, 1 tablet in the afternoon and 1 tablett at night, for a total of 2000 mg/day), DiaBeta (glyburide) at 10 mg twice a day (total of 20 mg/day) and Rezulin (troglitazone) at 200 mg/day. Patient was started on topiramate at 75 mg b.i.d (150 mg/day). […] After 15 months patient's weight was 190 lbs with blood sugars controlled on 100 mg topiramate in the morning, 200 mg topiramate at night (Total of 300 mg/day), DiaBeta at 10 mg twice a day and Rezulin at 200 mg once a day.

[4] = system: patient with elevated blood sugars; experiment: Case Study D: topiramate with Amaryl (glimepiride) in a patient with elevated blood sugars; type: in vivo, human
Protocol: The ability of the compounds of formula I administered in combination with an anti-diabetic agent to treat Type II diabetes mellitus and Syndrome X is based on the following case studies. The patient was a person, with a history of elevated blood sugars and a weight of 188 lbs. At the time of initial treatment, patient's blood sugar was 426 mg/dl. Patient was started on topiramate, titrated to 100 mg once a day. The patient was also prescribed […] (glimepiride). After 3 months, patient's blood sugar averaged in the upper 100s, lab sugars measured at 138 mg/dl, cholesterol at 278 mg/dl, triglycerides at 212 mg/dl and HgbA1C at 6.7%. […] Patient weighed 160 lbs. Patient was able to stop taking the […] due to improved sugar control. Due to concerns about weight loss, topiramate was decreased to 100 mg/day. After 21 months, patient's weight was 170 lbs, blood sugars were reported doing well. Lab measured glucose was 115 mg/dl, cholesterol was measured at 236 mg/dl, triglycerides at 106 mg/dl and HgbA1C at 5.7%.

[5] = system: markers of diabetes mellitus; experiment: Summary of the case studies: topiramate in combination with an anti-diabetic agent; type: in vivo, human; details: oral administration in combination with an anti-diabetic agent
[6] = system: simple and complex partial seizures and secondarily generalized seizures; details: adjunctive therapy or monotherapy; cited from earlier work
[7] = system: seizures; details: several rodent models of epilepsy; cited from earlier work
[8] = system: seizures; details: animal model of kindled epilepsy; cited from earlier work
[9] = after 3 months, topiramate 100 mg once a day with Amaryl
[10] = after 3 months, topiramate 100 mg once a day with Amaryl, initial 426 mg/dl
[11] = after 21 months, topiramate 100 mg/day, Amaryl stopped
[12] = after one year, topiramate increased to 200 mg/day

## CC1(C)O[C@@H]2[C@@H](CO[C@@]3(COS(N)(=O)=O)OC(C)(C)O[C@@H]23)O1 [topiramate, 2,3:4,5-bis-O-(1-methylethylidene)-β-D-fructopyranose sulfamate]
[1]; after 2 months, topiramate 75 mg a day with insulin (70/30), using the insulin less often
  blood sugar (patient indicated): improved significantly
[1]; after 16 months, with insulin (70/30), glucose at start 166 mg/dl
  fasting glucose: 89 mg/dL
[1]; after 18 months, with insulin (70/30), previously 150 to 160 mg/dl
  home measured blood sugars: less than 120 mg/dl
[1]; after one year, topiramate 200 mg b.i.d. with insulin (70/30)
  Hbg A1C: 6.94%
[1]; after one year, topiramate 200 mg b.i.d. with insulin (70/30), start 236 lbs
  patient's weight: 225 lbs
[2]; after 1 month, topiramate 50 mg/day with Glucotrol 40 mg/day, baseline 300 mg/dl
  home measured blood sugars: 140 mg/dL
[2]; after 2 months, topiramate 50 mg/day with Glucotrol 40 mg/day
  average blood sugar levels: 80 to 140 mg/dL
[2]; after 2 months, topiramate 50 mg/day with Glucotrol, start 293 lbs
  weight: 272 lbs
[3]; after 15 months, topiramate 300 mg/day with DiaBeta and Rezulin, prior 201 lbs
  patient's weight: 190 lbs
[3]; after 15 months, topiramate 300 mg/day, DiaBeta 10 mg twice a day, Rezulin 200 mg once a day
  blood sugars: controlled
[3]; topiramate 75 mg b.i.d (150 mg/day) with Glucophage, DiaBeta, Rezulin, prior blood sugar 309 mg/dl
  blood sugars (patient indicated): doing better
[3]; topiramate 150 mg b.i.d (300 mg/day) with DiaBeta and Rezulin
  need for Glucophage (sugar control): able to stop Glucophage
[4]; [9]
  HgbA1C: 6.7%
  cholesterol: 278 mg/dL
  triglycerides: 212 mg/dL
[4]; [10]
  blood sugar averaged: upper 100s
  lab sugars: 138 mg/dL
[4]; [11]
  HgbA1C: 5.7%
  blood sugars (reported): doing well
  cholesterol: 236 mg/dL
  lab measured glucose: 115 mg/dL
  patient's weight: 170 lbs
  triglycerides: 106 mg/dL
[4]; after one year, topiramate 200 mg/day
  need for Amaryl (sugar control): able to stop taking the Amaryl
[4]; after one year, topiramate 200 mg/day, start 188 lbs
  patient weight: 160 lbs
[4]; [12]
  cholesterol: 200 mg/dL
  lab measured blood sugars: 141 mg/dL
  triglycerides: 500 mg/dL
[5]
  status of markers of diabetes mellitus (blood glucose, glycosylated hemoglobin, triglyceride levels): consistently improved
[6]
  efficacy in treating simple and complex partial seizures and secondarily generalized seizures: effective
[7]
  seizure block: effectively block seizures
[8]
  seizure block: effectively block seizures
